Assays:
[1] = tested on: SPT; settings: literature statement; cited from earlier work
[2] = target: T1, SPT (Homo sapiens, UniProt O15269+O15270); experiment: Serine palmitoyltransferase activity, Assay C ([3H]serine incorporation into lipids, cell homogenate); assay type: biochemical; settings: for inhibition of SPT (in words): Assay C, at the doses of Table 2
T1 construct: endogenous in cells
T1 sequence (O15269 1-473): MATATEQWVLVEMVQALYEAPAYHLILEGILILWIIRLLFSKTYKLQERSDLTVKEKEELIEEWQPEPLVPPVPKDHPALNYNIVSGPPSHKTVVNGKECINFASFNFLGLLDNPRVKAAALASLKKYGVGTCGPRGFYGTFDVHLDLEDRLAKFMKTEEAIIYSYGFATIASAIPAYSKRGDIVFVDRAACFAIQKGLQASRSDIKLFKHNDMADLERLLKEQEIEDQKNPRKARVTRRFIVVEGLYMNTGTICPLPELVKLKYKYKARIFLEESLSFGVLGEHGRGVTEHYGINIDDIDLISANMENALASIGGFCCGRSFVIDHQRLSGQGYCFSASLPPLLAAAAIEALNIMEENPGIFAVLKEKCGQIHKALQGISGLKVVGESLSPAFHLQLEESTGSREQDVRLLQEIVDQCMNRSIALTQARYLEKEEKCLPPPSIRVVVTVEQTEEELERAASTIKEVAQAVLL
T1 sequence (O15270 1-562): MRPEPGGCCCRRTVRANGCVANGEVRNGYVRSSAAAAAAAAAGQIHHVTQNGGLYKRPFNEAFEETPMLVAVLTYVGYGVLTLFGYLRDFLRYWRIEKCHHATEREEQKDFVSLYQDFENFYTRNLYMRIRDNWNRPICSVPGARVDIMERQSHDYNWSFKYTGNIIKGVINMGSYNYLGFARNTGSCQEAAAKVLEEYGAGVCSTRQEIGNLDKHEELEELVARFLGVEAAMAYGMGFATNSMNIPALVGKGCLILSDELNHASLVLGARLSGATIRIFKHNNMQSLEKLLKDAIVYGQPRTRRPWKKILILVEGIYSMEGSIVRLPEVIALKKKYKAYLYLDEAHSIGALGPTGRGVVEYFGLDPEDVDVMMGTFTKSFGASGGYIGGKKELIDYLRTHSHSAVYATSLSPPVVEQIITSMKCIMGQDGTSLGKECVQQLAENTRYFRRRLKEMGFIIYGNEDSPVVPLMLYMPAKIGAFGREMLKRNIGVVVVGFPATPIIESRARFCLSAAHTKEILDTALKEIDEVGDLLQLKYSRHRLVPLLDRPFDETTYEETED
T1 sequence (Q969W0 1-71 partner): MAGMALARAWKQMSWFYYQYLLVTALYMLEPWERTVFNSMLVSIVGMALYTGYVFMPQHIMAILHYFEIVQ
Method: An alternative assay for evaluating inhibition of SPT, the enzyme present in commonly cultured cells, is performed with CHO cells or a human cell line. Cells are washed three times with ice-cold phosphate-buffered saline (PBS). A total of 0.5 mL of lysis buffer [50 mM Hepes (pH 8.0) containing 5 mM ethylenediaminetetraacetic acid (EDTA) and 5 mM dithiothreitol (DTT)] is added to each dish. The cells are scraped using a rubber policeman, and are then transferred to a test tube on ice. The cell suspension is sonicated three times for 5 s at 1–2 min intervals on ice. Protein concentrations in cell homogenates are measured using a Bradford protein assay kit (Bio-Rad). To measure the SPT activity, 0.1 mL of cell homogenates are added to 0.1 mL of reaction buffer [20 mM Hepes (pH 8.0) containing 5 mM EDTA, 10 mM DTT, 50 μM pyridoxal-5′-phosphate, 0.4 mM palmitoyl CoA, 2 mM L-serine, 10 μCi of [^3H]serine, and test compound or standard inhibitor (myriocin). After incubation at 37° C. for 20 min with shaking, the reaction is terminated with 0.5 mL of 0.5 N NH4OH containing 10 mM L-serine. The lipid products are extracted using the solvent system: 3 mL of chloroform/methanol (1:2), 25 μg of sphingosine (1 mg/mL in ethanol) as a carrier, 2 mL of chloroform, and 3.8 mL of 0.5 N NH4OH. After vigorous mixing, the phases are separated by centrifugation at 2500 rpm for 5 min. The aqueous layer is removed by aspiration, and the lower chloroform layer is washed 3 times with 4.5 mL of water. The chloroform layer is transferred to a scintillation vial, and the solvent is evaporated under N2 gas. The radioactivity is measured with a LS6000TA liquid scintillation counter (Beckman). Nonspecific conversion of [^3H] serine to chloroform-soluble species is determined by performing the assay in the absence of palmitoyl CoA. The count of the background is about one-sixth of the count of 100% activity.
An alternative assay using a non-chlorinated solvent modification of the Blye and Dyer lipid extraction method reported in Smedes (Smedes, F., Analyst 124:1711–18 (1999)) was employed to evaluate exemplary compounds. In this approach, the cells were washed three times with ice-cold phosphate-buffered saline and 0.5 mL of lysis buffer was added to each dish. The cells were scraped using a rubber policeman and transfer to a test tube on ice. The cell suspension was sonicated three times for 5 s at 1–2 min intervals on ice. A 0.1 mL sample of cell homogenates were added to 0.1 mL of reaction buffer in a test tube containing the appropriate concentration of test substance and 10 μCi of [^3H] serine. The reaction mixture was incubated at 37° C. for 20 min with shaking, and the reaction was terminated with 0.5 mL of […] NH4OH stop solution containing 10 mM unlabeled L-serine. Total lipids are extracted by transferring the contents of the test tube into a 15 ml centrifuge tube containing: 4.5 mL of isopropanol/cyclohexane (4:5) containing 25 μg of sphingosine (1 mg/mL in ethanol and diluted into the isopropanol/cyclohexane mixture) as a carrier. The contents were mixed vigorously and 4 mL of 0.5 N NH4OH was added. The phases were separated by centrifugation at 2500 rpm for 5 min. An accurately measured portion of the organic layer (4.0 ml) was added to a scintillation vial with 1 ml of water. Ultima Gold F (5 ml) was added, the vial was vortexed and allowed to settle into separate layers. The amount of [^3H] serine radioactivity incorporated into lipids was quantified in a scintillation counter. Non-specific counts were determined by carrying out the assay with control samples containing no palmitoyl CoA.

[3] = tested on: Rat pancreatic islets; experiment: Protection of islets from fatty acid (palmitate) induced apoptosis, propidium iodide flow cytometry; assay type: cell-based; settings: 3 days; for % Apoptosis: Fatty Acid medium (1 millimolar sodium palmitate), Control medium 2.40, Fatty Acid medium 17.60
Method: Islet protection by an exemplary compound was evaluated in an assay according to Eitel, K, et al (2002), and results obtained in this assay are reported below in Table 4. Rat pancreatic islets were cultured with control medium (RPMI 1640 supplemented with 10% fetal bovine serum, antibiotics and made […]) or in medium supplemented with 1 millimolar sodium palmitate (Fatty Acid Medium) during a period of 3 days. The culture medium was changed after 2 days to an identical composition culture medium with fresh inhibitor in the appropriate wells. Cells were stained with propidium iodide (PI), washed and propidium staining of cells (as a measure of cellular DNA content) was assessed by flow cytometry. The percentage of cells having less than the normal amount of PI staining was considered to be apoptotic cells (Eitel, K, et al. (2002)).

[4] = tested on: beta cell apoptosis; settings: diabetic Zucker fatty rat model; cited from earlier work
[5] = 1 nM, Table 2, No Inhibitor 4443/4483, no CoA blank 305
[6] = 10 nM, Table 2, No Inhibitor 4443/4483, no CoA blank 305

## CCCCCCCCc1ccc(CCC(N)(CO)C(=O)O)cc1 (stereo not shown) [Compound 2]
[1]
  activity against SPT (in words): did not exhibit activity against SPT

## CCCCCCCOc1ccc(CCC(N)(CO)C(=O)O)cc1 (stereo not shown) [Compound 12]
[2]; [5]
  Counts: 4215
[2]; [6]
  Counts: 4118
[2]; 100 nM, Table 2, No Inhibitor 4443/4483, no CoA blank 305
  Counts: 4258
[2]; 1 μM, Table 2, No Inhibitor 4443/4483, no CoA blank 305
  Counts: 4169
[2]; 10 μM, Table 2, No Inhibitor 4443/4483, no CoA blank 305
  Counts: 4608
[2]
  inhibition of SPT (in words): moderate activity
[3]
  % Apoptosis: 2.33%
[3]; rat islets, fatty acid medium
  protection of cells from the fatty acid treatment (in words): fully protect cells

## CCCCCCCCc1ccc(CCC(N)(CO)CO)cc1 [FTY720]
[1]
  activity against SPT (in words): do not inhibit SPT

## CCCCCCC(=O)CCCCCC/C=C/C[C@@H](O)[C@H](O)[C@@](N)(CO)C(=O)O [ISP, myriocin]
[2]; [5]
  Counts: 2509
[2]; [6]
  Counts: 535
[2]; 10 nM, Table 3, Control 5816, No Palm CoA 611
  Counts: 959
[2]
  inhibition of SPT (in words): potent but non-selective inhibition of SPT
[3]
  % Apoptosis: 14.65%

## N[C@@H]1CON=C1O [cycloserine]
[4]
  partial beta cell protective effect: ~50 % activity
